In ChEMBL document CHEMBL1201862, “PubChem BioAssay data set” (2004):
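Compound exposure: 48 hours, 5 concentrations, 96-well plates. Abbreviation: GI50, concentration required for 50% inhibition of growth.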 Active and inactive are the calls of the source. No stated cut-off is given here; in the data, active = GI50 up to about 1.1 µM and inactive = higher.

What was measured:
Assay in all cases: growth of human tumour cells (NCI), 48 h
UO-31 = test system: UO-31
T47D = test system: T47D
Malme-3M = test system: Malme-3M
786-0 = test system: 786-0
UACC-257 = test system: UACC-257
SK-OV-3 = test system: SK-OV-3
ACHN = test system: ACHN
NCI-H522 = test system: NCI-H522
SR = test system: SR
HOP-62 = test system: HOP-62
SNB-75 = test system: SNB-75
KM12 = test system: KM12
EKVX = test system: EKVX
OVCAR-3 = test system: OVCAR-3
NCI-H226 = test system: NCI-H226
NCI/ADR-RES = test system: NCI/ADR-RES
HCT-116 = test system: HCT-116
MDA-MB-435 = test system: MDA-MB-435
SN12C = test system: SN12C
MDA-N = test system: MDA-N

Measured: GI50

S=C(N/N=C/c1ccccn1)Nc1ccc(Cl)cc1
active: UO-31 51.4 nM | T47D 16.9 nM | Malme-3M 145 nM | 786-0 60.1 nM | UACC-257 40 nM | SK-OV-3 37.8 nM | ACHN 45.5 nM | NCI-H522 28 nM | SR < 21.8 nM | HOP-62 181 nM | SNB-75 236 nM | KM12 175 nM | EKVX 68.2 nM | OVCAR-3 < 10 nM | NCI-H226 84.5 nM | NCI/ADR-RES 36.6 nM | HCT-116 44.9 nM | MDA-MB-435 373 nM | SN12C 320 nM | MDA-N 933 nM
